Results from patent US7678557B2, “Methods for the accumulation and retention of immune-enhancing, bacterial-derived ribonucleotides (ORN) in bacteria” (priority 1993, dated 2010).

Tested on: L. monocytogenes
Assay: Disk diffusion assay of antibiotic susceptibility before and after 6 serial washes in PBS (Example 9)
Format: cell-based
Conditions: disk content per antimicrobial, average of 6 experiments (SD)
Description: The disk diffusion assay was used to determine the susceptibility of vegetative forms of L. monocytogenes, before and after 6 serial 20-min washes in PBS. (See Bauer, A, Kirby, W, Sherris, J, Turck, M, 1966 Antibiotic Susceptibility Testing by a Standardize Single Disk Method, Amer J Clin Path 36:41-44).
Data are averages of 6 experiments. SD is in parentheses.

[1] = After 6 Washes (20 min each in PBS), L. monocytogenes
[2] = Before Washing, vegetative L. monocytogenes

Compound	Diameter of Zone of Inhibition [1]	Diameter of Zone of Inhibition [2]
CC1(C)S[C@@H]2[C@H](NC(=O)[C@H](N)c3ccccc3)C(=O)N2[C@H]1C(=O)O [Ampicillin]	30 mm (3.6)	32 mm (3.8)
CN[C@H](CC(C)C)C(=O)N[C@H]1C(=O)N[C@@H](CC(N)=O)C(=O)N[C@H]2C(=O)N[C@H]3C(=O)N[C@H](C(=O)N[C@H](C(=O)O)c4cc(O)cc(O)c4-c4cc3ccc4O)[C@H](O)c3ccc(c(Cl)c3)Oc3cc2cc(c3O[C@@H]2O[C@H](CO)[C@@H](O)[C@H](O)[C@H]2O[C@H]2C[C@](C)(N)[C@H](O)[C@H](C)O2)Oc2ccc(cc2Cl)[C@H]1O [Vancomycin]	30 (4.2) mm	25 (3.7) mm
CN(C)[C@@H]1C(O)=C(C(N)=O)C(=O)[C@@]2(O)C(O)=C3C(=O)c4c(O)cccc4[C@@](C)(O)[C@H]3C[C@@H]12 [Tetracycline]	45 (6.3) mm	40 (5.0) mm
Polymixin B	–	0 mm
NC[C@H]1O[C@H](O[C@H]2[C@H](O)[C@@H](O[C@H]3O[C@H](CO)[C@@H](O)[C@H](N)[C@H]3O)[C@H](N)C[C@@H]2N)[C@H](O)[C@@H](O)[C@@H]1O [Kanamycin]	–	11 (2.66) mm
